Values joined by “and” are separate entries in the source; they are usually repeats but may differ in a detail not shown here. Identical values can stand only once. Like-named read-outs stand apart in the source and are kept apart here.
What was measured:
CatSper [1] = molecular target: T1, CatSper (Homo sapiens, UniProt Q7RTX7+Q86XQ3+Q8NEC5+Q96P56); assay: Steroid-induced increase in [Ca2+]i in human sperm (Fluo-4 HTS assay, screen 1 activators); format: cell-based; conditions: for Emax: read-out: Max amplitude (%) (± SD)
T1 construct: Motile spermatozoa were selected by a ‘swim-up’ procedure; endogenous in cells; host or cells: motile human spermatozoa (swim-up) from healthy donors
Description: (§1) Briefly, motile spermatozoa were selected by swim-up and labeled with the fluorescent calcium indicator Fluo-4 a.m. to image changes in [Ca^2+]i. After centrifugation to remove excess dye, Fluo-4 AM loaded cells were distributed in a 384-wells plate to obtain ∼125,000 cells/well. After measuring basal fluorescence, a first injection of compounds was performed in order to evaluate their effect on [Ca^2+]i alone. This first screen is therefore considered as a screen to search for ‘activators’. Fluorescence was recorded for 12 min during which sperm cells were continuously exposed to compounds. P4 or PGE1 were then added in the same wells to evaluate whether the tested compounds can reduce the ligand-induced activation of CatSper. This second screen was therefore considered to be a search for CatSper ‘inhibitors’.
Human semen samples were collected from healthy donors by masturbation after a recommended sexual abstinence period of minimum 2 days. Semen samples were allowed to liquefy at 37°C for 15–30 min. […] Motile sperm were allowed to swim at 37°C for 1 hour. The supernatant was collected in 15 mL Falcon tubes and washed twice by centrifugation at 700 x g for 20 min. Sperm were supplemented with 3 mg/mL HSA.
20 μL of cells (corresponding to ∼125,000 cells) loaded with Fluo-4 a.m. were dispensed in a 384-wells plate (Corning, NY, United States) to allow fluorescence measurement. The dye was excited at 480 nm, and emission was recorded at 530 nm. The change in [Ca^2+]i was assessed simultaneously in all wells using a Functional Drug Screening System (FDSS/μCELL) (Hamamatsu Phototonics K.K., Yokohama, Japan) at 37°C. Basal fluorescence was first measured for 30 s. […] P4 and PGE1 were tested at a near-saturating concentration in the HTS in order to evaluate a potential additive or synergistic effect induced by the compounds. […] For alkalization-induced Ca^2+ measurement, NH4Cl was used as a positive control at a final concentration of 10 mM. […] The Prestwick library was tested in technical duplicate. Ca^2+ response curves were normalized using the following formula F−F0/F0×100 , where F 0 is the average of the basal fluorescence prior to the addition of the compound of interest and F corresponds to the fluorescence value at each time point. The ∆F/F0 of the vehicle control (DMSO) was subtracted from all the other values to adjust for dilution and pipetting artifacts. The values of all compounds were normalized to their respective controls.
Data are shown as mean ± standard deviation (SD) with “n” referring to the number of independent experiments performed using sperm samples from ≥3 different donors. Statistical analysis and fitting of dose-response relations were performed using GraphPad Prism 8.1.1 (Prism, La Jolla, United States). To generate sigmoidal curves, the concentrations were converted to their respective log values, and the data were normalized using the following formula: 100⋅x/Fmax , where Fmax is the maximum value of the positive control. A four-parameter Hill equation with a variable Hill coefficient was fitted to generate the EC02, EC50, and IC50. Statistical significance between control and treated conditions was evaluated using a one-way analysis of variance (ANOVA), followed by Dunnett´s test. A p-value <0.05 was considered significant.

CatSper [2] = molecular target: T1, CatSper; assay: Inhibition of P4-induced Ca2+ influx in human sperm (screen 2 inhibitors); format: cell-based
Description: as §1
Human semen samples were collected from healthy donors by masturbation after a recommended sexual abstinence period of minimum 2 days. Semen samples were allowed to liquefy at 37°C for 15–30 min. Motile spermatozoa were selected by a ‘swim-up’ procedure as previously described ([Strünker et al., 2011]). Briefly, 1 mL of semen was deposited in a 45°-inclined 50 mL Falcon tube with 4 mL of Human Tubular Fluid (HTF) medium containing: 93.8 mM NaCl, 4.7 mM KCl, 0.2 mM MgSO4, 0.37 mM KH2PO4, 2.04 mM CaCl2, 20.98 mM HEPES, 2.78 mM glucose, 21.4 mM Na-lactate, 4 mM NaHCO3, 0.33 mM Na-pyruvate, and the pH was adjusted to 7.35. Motile sperm were allowed to swim at 37°C for 1 hour. The supernatant was collected in 15 mL Falcon tubes and washed twice by centrifugation at 700 x g for 20 min. Sperm were supplemented with 3 mg/mL HSA. Written informed consent was obtained from all donors prior to donation and approved by the Cantonal Ethics Committee of the State of Geneva (CCER #14-147).
Cells were loaded with the fluorescent Ca^2+ indicator Fluo-4 AM at a final concentration of 2.5 µM for 30 min at 37°C. Excess dye was washed via centrifugation at 700 x g for 20 min and sperm were resuspended in HTF medium to obtain a final concentration of 6.25 x 10^6 cells/mL. 20 μL of cells (corresponding to ∼125,000 cells) loaded with Fluo-4 a.m. were dispensed in a 384-wells plate (Corning, NY, United States) to allow fluorescence measurement. The dye was excited at 480 nm, and emission was recorded at 530 nm. The change in [Ca^2+]i was assessed simultaneously in all wells using a Functional Drug Screening System (FDSS/μCELL) (Hamamatsu Phototonics K.K., Yokohama, Japan) at 37°C. Basal fluorescence was first measured for 30 s. […] P4 and PGE1 were tested at a near-saturating concentration in the HTS in order to evaluate a potential additive or synergistic effect induced by the compounds. Non-specific CatSper inhibitor MDL 12330A was used as a negative control at final concentration of 20 µM while DMSO was used as a vehicle control. For alkalization-induced Ca^2+ measurement, NH4Cl was used as a positive control at a final concentration of 10 mM. Fluorescence was recorded for a total of 16.5 min: 30 s before injection, 12 min after the first injection of the tested compounds, and 4 min after the second injection of either P4 or PGE1. The Prestwick library was tested in technical duplicate. Ca^2+ response curves were normalized using the following formula F−F0/F0×100 , where F 0 is the average of the basal fluorescence prior to the addition of the compound of interest and F corresponds to the fluorescence value at each time point. The ∆F/F0 of the vehicle control (DMSO) was subtracted from all the other values to adjust for dilution and pipetting artifacts. The values of all compounds were normalized to their respective controls.

[3] = maximal amplitude of steroid-induced [Ca2+]i increase, relative to P4, 3 independent experiments
[4] = pooled from 3 independent experiments, read-out: Mean EC50 µM (±SD)
[5] = P4-induced response, pooled from 3 independent experiments, read-out: Mean IC50 (P4) µM (±SD)
[6] = EC50 (±SD), increase in [Ca2+]i, dose-response 90 µM to 0.3 nM
[7] = Mean EC50 µM (±SD), pooled from 3 independent experiments
[8] = IC50 (±SD), inhibition of P4-induced Ca2+ response, dose-response 90 µM to 0.3 nM
[9] = Mean IC50 (P4) µM (±SD), P4-induced response, pooled from 3 independent experiments

Compound | EC50 (CatSper [1]; [4]) | Max P4 inhibition (%) (± SD) (CatSper [2]; 3 independent experiments) | IC50 (CatSper [2]; [5]) | Emax (CatSper [1]) | IC50 (CatSper [2]; [9]) | also measured
C#C[C@]1(OC(C)=O)CC[C@H]2[C@@H]3CCC4=CC(=NO)CC[C@@H]4[C@H]3CC[C@@]21CC (mixture of isomers) [norgestimate] | 0.918 µM | 53 (±5) % | 8.05 µM | – | – | Emax (CatSper [1]; [3]): 79%
C[C@]12CC[C@@H](O)C[C@H]1CC[C@@H]1[C@@H]2CC[C@]2(C)C(=O)CC[C@@H]12 [3-alpha-hydroxy-5-beta-androstan-17-one] | 0.915 µM | 66 (±2) % | 1.52 µM | – | – | Max amplitude (%) (± SD) (CatSper [1]; [3]): 66 (±2) %
C[C@]12CC[C@H]3[C@@H](CCC4=CC(=O)CC[C@@]43C)[C@@H]1CC[C@@H]2C(=O)CO [Deoxycorticosterone] | – | 86 (±3) % | – | 94% | – | EC50 (CatSper [1]; [6]): 0.302 µM; EC50 (CatSper [1]; EC50, increase in [Ca2+]i): 0.3 µM; EC50 (CatSper [1]; [7]): 0.295 µM; reduction of the P4 response (CatSper [2]): more than 86%; IC50 (CatSper [2]; [8]): 0.523 µM; IC50 (CatSper [2]; IC50, reduction of P4 response): 0.5 µM
CC(=O)[C@H]1CC[C@H]2[C@@H]3C[C@H](C)C4=CC(=O)CC[C@]4(C)[C@H]3[C@@H](O)C[C@]12C [Medrysone] | 0.23 µM | 83 (±4) % | 0.471 µM | – | – | EC50 (CatSper [1]; increase in [Ca2+]i, dose-response 90 µM to 0.3 nM, read-out: EC50 (±SD)): 0.24 µM; Emax (CatSper [1]; [3]): 104%; IC50 (CatSper [2]; inhibition of P4-induced Ca2+ response, dose-response 90 µM to 0.3 nM, read-out: IC50 (±SD)): 0.569 µM
C[C@]12CC[C@H]3[C@@H](CCC4=CC(=O)CC[C@@H]43)[C@@H]1CC[C@@H]2O [Nandrolone] | – | 85 (±1) % | – | 98% | 0.729 µM | EC02 compared with reported maximum concentration in blood serum (CatSper [1]): EC02 below the reported maximum concentration found in blood serum; EC50 (CatSper [1]; [6]): 0.306 µM; increase in [Ca2+]i (CatSper [1]; at low concentrations in the nanomolar range): 30%; IC50 (CatSper [2]; [8]): 0.711 µM
CC(=O)C1CCC2C3CC[C@H]4CC(=O)CC[C@]4(C)C3CC[C@]12C (some centres unmarked) [S46] | – | 90 (±6) % | – | 141% | – | EC50 (CatSper [1]; EC50, increase in [Ca2+]i in human sperm): 0.032 µM and 0.073 µM; IC50 (CatSper [2]; IC50, decrease of response to P4): 0.046 µM and 0.138 µM
CC12CCC(O)CC1CCC1C2CCC2(C)C1CCC2(C)O (centres unmarked) [S64] | – | 55 (±1) % | – | 65% | 0.682 µM | EC50 (CatSper [1]; [7]): 0.265 µM
CC12CCC3C(CC[C@H]4CC(=O)CCC34C)C1CCC2O (some centres unmarked) [S65] | – | 95 (±1) % | – | 91% | – | –
CC12CCC(O)CC1=CCC1C2CCC2(C)C(C(=O)O)CCC12 (centres unmarked) [S67] | – | 86 (±3) % | – | 80% | 0.253 µM | EC50 (CatSper [1]; [7]): 0.108 µM
C[C@]12CC[C@H]3[C@@H](CC[C@H]4C[C@H](O)CC[C@@H]43)[C@@H]1CCC2=O [S85] | – | 96 (±2) % | – | 99% | 0.495 µM | EC50 (CatSper [1]; [7]): 0.259 µM
C[C@]12CC[C@H]3[C@@H](CCC4=CC(=O)CC[C@@]43C)[C@@H]1CC[C@@H]2O [Testosterone] | – | 81 (±6) % | – | 87% | 1.09 µM | EC50 (CatSper [1]; [6]): 0.407 µM
C[C@]12CCC(=O)C=C1CC[C@@H]1[C@@H]2C(=O)C[C@]2(C)C(=O)CC[C@@H]12 [adrenosterone] | 14.5 µM | 24 (±3) % | 30.8 µM | – | – | Max amplitude (%) (± SD) (CatSper [1]; [3]): 26 (±2) %
C[C@]12CCC(=O)C=C1C=C[C@@H]1[C@@H]2CC[C@@]2(C)[C@H]1CC[C@@]21CCC(=O)O1 [canrenone] | 7.51 µM | 49 (±1) % | – | – | – | Emax (CatSper [1]; [3]): 69%
C[C@]12C[C@H](O)[C@H]3[C@@H](CCC4=CC(=O)CC[C@@]43C)[C@@H]1CC[C@@H]2C(=O)CO [corticosterone] | 2.94 µM | 49 (±5) % | 6.1 µM | – | – | Emax (CatSper [1]; [3]): 55%
C[C@]12CC[C@H]3C(=CCc4cc(O)ccc43)[C@@H]1CCC2=O [equilin] | – | – | – | 62% | – | EC50 (CatSper [1]): 0.999 µM; IC50 (CatSper [2]): 1.85 µM; Max P4 inhibition (%) (± SD) (CatSper [2]): 50 (±11) %
C[C@]12CC[C@@H]3c4ccc(O)cc4CC[C@H]3[C@@H]1CC[C@@H]2O [estradiol-17 beta] | 0.761 µM | 67 (±3) % | 1.45 µM | – | – | Max amplitude (%) (± SD) (CatSper [1]; [3]): 75 (±8) %
C[C@]12CC[C@@H]3c4ccc(O)cc4CC[C@H]3[C@@H]1CCC2=O [estrone] | – | 67 (±2) % | – | – | 0.56 µM | EC50 (CatSper [1]; [7]): 0.267 µM; Emax (CatSper [1]; [3]): 49%

From publication PMC10397409, “The action of physiological and synthetic steroids on the calcium channel CatSper in human sperm” (Frontiers in Cell and Developmental Biology, 2023)
